Assay results as given in patent publication US9708331B2, “Metabotrophic glutamate receptor 5 modulators and methods of use thereof” (SUNOVION PHARMACEUTICALS INC., priority 2011, dated 2017).

What was measured:
mGluR5 [1] = molecular target: T1, mGluR5 (Homo sapiens, UniProt P41594); assay: mGluR5 fold shift at a fixed compound concentration; assay type: cell-based
mGluR5 [2] = molecular target: T1, mGluR5; assay: mGluR5 PAM EC50 (positive allosteric modulator potency); assay type: cell-based

T1 sequence (P41594 21-1212): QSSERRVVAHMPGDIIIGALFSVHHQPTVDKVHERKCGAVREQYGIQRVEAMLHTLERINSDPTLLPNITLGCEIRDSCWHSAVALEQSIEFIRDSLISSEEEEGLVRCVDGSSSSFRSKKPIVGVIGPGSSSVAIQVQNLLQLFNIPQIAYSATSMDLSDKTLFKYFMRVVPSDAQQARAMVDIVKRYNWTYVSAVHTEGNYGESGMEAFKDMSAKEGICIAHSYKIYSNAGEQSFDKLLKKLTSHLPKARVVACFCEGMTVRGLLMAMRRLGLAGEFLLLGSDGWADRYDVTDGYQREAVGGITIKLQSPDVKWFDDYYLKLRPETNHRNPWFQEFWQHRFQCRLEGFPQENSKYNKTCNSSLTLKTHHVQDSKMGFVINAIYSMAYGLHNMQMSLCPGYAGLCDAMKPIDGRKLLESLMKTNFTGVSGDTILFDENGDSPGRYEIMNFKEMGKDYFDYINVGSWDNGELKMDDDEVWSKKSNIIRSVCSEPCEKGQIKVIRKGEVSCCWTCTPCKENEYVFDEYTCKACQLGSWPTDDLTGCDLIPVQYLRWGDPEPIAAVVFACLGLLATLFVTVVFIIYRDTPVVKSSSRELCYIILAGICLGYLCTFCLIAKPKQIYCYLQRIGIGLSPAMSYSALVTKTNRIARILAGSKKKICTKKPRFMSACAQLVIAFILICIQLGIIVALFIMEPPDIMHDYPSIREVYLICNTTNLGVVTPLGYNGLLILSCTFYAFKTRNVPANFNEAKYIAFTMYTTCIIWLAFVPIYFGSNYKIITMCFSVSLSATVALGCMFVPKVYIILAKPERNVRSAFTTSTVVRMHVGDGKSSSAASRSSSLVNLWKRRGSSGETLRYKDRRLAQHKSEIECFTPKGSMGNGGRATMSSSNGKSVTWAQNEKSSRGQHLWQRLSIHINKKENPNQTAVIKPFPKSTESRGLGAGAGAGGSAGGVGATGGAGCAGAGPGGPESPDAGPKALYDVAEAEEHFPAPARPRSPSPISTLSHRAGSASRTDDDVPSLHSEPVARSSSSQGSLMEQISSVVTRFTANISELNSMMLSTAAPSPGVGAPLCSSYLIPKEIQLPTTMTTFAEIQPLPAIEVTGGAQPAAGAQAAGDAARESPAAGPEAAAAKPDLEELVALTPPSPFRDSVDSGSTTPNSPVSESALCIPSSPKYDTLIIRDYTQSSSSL

Fold shift at 1 μM (mGluR5 [1])	EC50 (mGluR5 [2]) [nM]	Fold shift at 10 μM (mGluR5 [1])	SMILES
+ (+ is between 1.5 and 1.9)	30 to 100	–	COc1ccnc(C#Cc2ccc3c(=O)n4c(nc3c2)CCC(C)(C)C4)c1 [Example 2.102, 3-((4-methoxypyridin-2-yl)ethynyl)-8,8-dimethyl-8,9-dihydro-6H-pyrido[2,1-b]quinazolin-11(7H)-one]
+ (+ is between 1.5 and 1.9)	30 to 100	–	O=c1c2ccc(C#Cc3ccccn3)cc2nc2n1CC(C(F)(F)F)C2 (single isomer, unassigned) [Example 1.8b]
++ (++ is between 2.0 and 2.9)	< 10	–	CC1(C)CCc2nc3cc(C#Cc4ccc(F)cn4)ccc3c(=O)n2C1 [Example 2.43, 3-((5-fluoropyridin-2-yl)ethynyl)-8,8-dimethyl-8,9-dihydro-6H-pyrido[2,1-b]quinazolin-11(7H)-one]
–	< 10	+++ (+++>3)	CC1(C)CC(F)c2nc3cc(C#Cc4ccccn4)ccc3c(=O)n2C1 (single isomer, unassigned) [Example 2.12a]
+ (+ is between 1.5 and 1.9)	30 to 100	–	CC1(C)Cc2nc3cc(C#Cc4ccccn4)ccc3c(=O)n2O1 [Example 1.15, 2,2-dimethyl-6-(pyridin-2-ylethynyl)-2H-isoxazolo[3,2-b]quinazolin-9(3H)-one]
–	10 to 30	++ (++ is between 2.0 and 2.9)	CC1Cn2c(nc3cc(C#Cc4ccccn4)ccc3c2=O)CCC1(F)F (single isomer, unassigned) [Example 3.30f]
–	–	++ (++ is between 2.0 and 2.9)	COC1(C)CCc2nc3cc(C#Cc4ccccn4)ccc3c(=O)n2CC1 (single isomer, unassigned) [Example 3.4b]
+++ (+++>3)	< 10	–	CC12Cn3c(nc4cc(C#Cc5ccccn5)ccc4c3=O)CC1C2(F)F (stereo not shown) [Example 2.69, 1,1-difluoro-10a-methyl-5-(pyridin-2-ylethynyl)-1a,2,10,10a-tetrahydrocyclopropa[4,5]pyrido [2,1-b]quinazolin-8(1H)-one]
–	10 to 30	+++ (+++>3)	CC1Cc2nc3cc(C#Cc4ccccn4)ccc3c(=O)n2CCC1(F)F (single isomer, unassigned) [Example 3.30c]
++ (++ is between 2.0 and 2.9)	30 to 100	–	CCC1(C)Cc2nc3cc(C#Cc4ccccn4)cnc3c(=O)n2C1 (stereo not shown) [Example 1.19, 7-ethyl-7-methyl-3-(pyridin-2-ylethynyl)-7,8-dihydropyrido[3,2-d]pyrrolo[1,2-a]pyrimidin-10(6H)-one]
+++ (+++>3)	< 10	–	O=c1c2ccc(C#Cc3ccccn3)cc2nc2n1CC1(CC2)CC1(F)F (stereo not shown) [Example 2.68, 2,2-difluoro-3′-(pyridin-2-ylethynyl)-6′,7′-dihydrospiro[cyclopropane-1,8′-pyrido[2,1-b]quinazolin]-11′(9′H)-one]
+++ (+++>3)	10 to 30	–	CC1(C)CCc2nc3c(F)c(C#Cc4ccccn4)ccc3c(=O)n2C1 [Example 2.30b, 4-fluoro-8,8-dimethyl-3-(pyridin-2-ylethynyl)-8,9-dihydro-6H-pyrido[2,1-b]quinazolin-11(7H)-one]
++ (++ is between 2.0 and 2.9)	10 to 30	–	COC1CCc2nc3cc(C#Cc4ccccn4)ccc3c(=O)n2CC1 (single isomer, unassigned) [Example 3.11b]
+++ (+++>3)	30 to 100	–	CC1(F)CCc2nc3cc(C#Cc4ccccn4)cnc3c(=O)n2CC1 (single isomer, unassigned) [Example 3.10b]
–	< 10	+++ (+++>3)	CC1CCc2cc3cc(C#Cc4ccccn4)ccc3c(=O)n2CC1 (single isomer, unassigned) [Example 3.20a]
+++ (+++>3)	< 10	–	CC1(CF)CCc2nc3cc(C#Cc4ccccn4)ccc3c(=O)n2C1 (stereo not shown) [Example 2.96, 8-(fluoromethyl)-8-methyl-3-(pyridin-2-ylethynyl)-8,9-dihydro-6H-pyrido[2,1-b]quinazolin-11(7H)-one]
++ (++ is between 2.0 and 2.9)	< 10	–	Cc1ncc(C#Cc2ccc3c(=O)n4c(nc3c2)CCC(C)(C)C4)s1 [Example 2.49, 8,8-dimethyl-3-((2-methylthiazol-5-yl)ethynyl)-8,9-dihydro-6H-pyrido[2,1-b]quinazolin-11(7H)-one]
++ (++ is between 2.0 and 2.9)	30 to 100	–	COc1cccc(C#Cc2ccc3c(=O)n4c(nc3c2)CCC(C)(C)C4)n1 [Example 2.101, 3-((6-methoxypyridin-2-yl)ethynyl)-8,8-dimethyl-8,9-dihydro-6H-pyrido[2,1-b]quinazolin-11(7H)-one]
++ (++ is between 2.0 and 2.9)	–	–	CC1CCn2c(nc3cc(C#Cc4ccccn4)ccc3c2=O)C1 (single isomer, unassigned) [Example 2.1b]
+++ (+++>3)	10 to 30	–	CC1(C)COc2nc3cc(C#Cc4ccccn4)ccc3c(=O)n2C1 [Example 2.29, 3,3-dimethyl-9-(pyridin-2-ylethynyl)-3,4-dihydro-[1,3]oxazino[2,3-b]quinazolin-6(2H)-one]
–	–	+ (+ is between 1.5 and 1.9)	CC1(C)CC(F)c2nc3cc(C#Cc4ccccn4)ccc3c(=O)n2C1 (single isomer, unassigned) [Example 2.12b]
–	300 to 1000	–	C=CC1(O)CCc2nc3cc(C#Cc4ccccn4)ccc3c(=O)n2C1 (stereo not shown) [Example 2.18, 8-hydroxy-3-(pyridin-2-ylethynyl)-8-vinyl-8,9-dihydro-6H-pyrido[2,1-b]quinazolin-11(7H)-one]

Fold shift at 1 μM (mGluR5 [1])	EC50 (mGluR5 [2]) [nM]	Fold shift at 10 μM (mGluR5 [1])	SMILES
–	300 to 1000	–	CC1(C)CCc2nc3cc(NC(=O)Nc4ccccn4)ccc3c(=O)n2C1 [Example 6.12, 1-(8,8-dimethyl-11-oxo-7,8,9,11-tetrahydro-6H-pyrido[2,1-b]quinazolin-3-yl)-3-(pyridin-2-yl)urea]
–	30 to 100	–	O=c1c2ccc(C#Cc3ccccn3)cc2nc2n1CCC1COCC1C2 (single isomer, unassigned) [Example 3.2e]
–	300 to 1000	–	CC12CCCN1CCc1nc3cc(C#Cc4ccccn4)ccc3c(=O)n1C2 (stereo not shown) [Example 3.34, 14a-methyl-9-(pyridin-2-ylethynyl)-2,3,5,6,14,14a-hexahydropyrrolo[2′,1′:3,4][1,4] diazepino[7,1-b]quinazolin-12(1H)-one]
–	300 to 1000	–	O=c1c2ccc(C#Cc3ccccn3)cc2nc2n1CC(CF)C2 (single isomer, unassigned) [Example 1.9b]
–	30 to 100	–	CC1Cn2c(nc3cc(C#Cc4ccccn4)ccc3c2=O)CN1C (single isomer, unassigned) [Example 2.5a]
–	< 10	–	CC1(C)CCc2nc3cc(C#Cc4cnccc4F)ccc3c(=O)n2C1 [Example 2.90, 3-((4-fluoropyridin-3-yl)ethynyl)-8,8-dimethyl-8,9-dihydro-6H-pyrido[2,1-b]quinazolin-11(7H)-one]
–	30 to 100	–	O=c1c2ccc(C#Cc3ccccn3)cc2nc2n1CC1COCC1CC2 (single isomer, unassigned) [Example 3.2d]
–	10 to 30	–	CC1CCc2nc3cc(C#Cc4ccccn4)ccc3c(=O)n2C1 (single isomer, unassigned) [Example 2.2b]
–	30 to 100	–	Cc1cc(C#Cc2ccccn2)cc2nc3n(c(=O)c12)CCC(C)CC3 (stereo not shown) [Example 3.22, 1,8-dimethyl-3-(pyridin-2-ylethynyl)-7,8,9,10-tetrahydroazepino[2,1-b]quinazolin-12(6H)-one]
–	< 10	–	CC1(C)Cn2c(nc3cc(C#Cc4ccccn4)ccc3c2=O)C1F (single isomer, unassigned) [Example 1.11a]
–	30 to 100	–	CC1(C)CC(F)c2nc3cc(C#Cc4ccccn4)cnc3c(=O)n2C1 (single isomer, unassigned) [Example 2.15a]
–	100 to 300	–	CC1(C)CCc2nc3cc(-c4ncc(-c5ccccn5)o4)ccc3c(=O)n2C1 [Example 6.25, 8,8-dimethyl-3-(5-(pyridin-2-yl)oxazol-2-yl)-8,9-dihydro-6H-pyrido[2,1-b]quinazolin-11(7H)-one]
–	300 to 1000	–	CC1(C)CCc2nc3cc(-c4cnc(-c5ccccn5)s4)ccc3c(=O)n2C1 [Example 6.28, 8,8-dimethyl-3-(2-(pyridin-2-yl)thiazol-5-yl)-8,9-dihydro-6H-pyrido[2,1-b]quinazolin-11(7H)-one]
–	< 10	–	O=c1c2ccc(C#Cc3ccccn3)cc2nc2n1CC(C(F)(F)F)CC2 (single isomer, unassigned) [Example 2.14b]
–	< 10	–	CC1(C)CCc2nc3cc(C#Cc4cccnc4F)ccc3c(=O)n2C1 [Example 2.87, 3-((2-fluoropyridin-3-yl)ethynyl)-8,8-dimethyl-8,9-dihydro-6H-pyrido[2,1-b]quinazolin-11(7H)-one]
++ (++ is between 2.0 and 2.9)	–	–	O=c1c2ccc(C#Cc3ccccn3)cc2nc2n1C1CCC2C1 (single isomer, unassigned) [Example 2.9b]
–	30 to 100	–	O=c1c2ncc(C#Cc3ccccn3)cc2nc2n1CCCC(C(F)(F)F)C2 (stereo not shown) [Example 3.8, 3-(pyridin-2-ylethynyl)-7-(trifluoromethyl)-7,8,9,10-tetrahydropyrido[3′,2′:4,5]pyrimido [1,2-a]azepin-12(6H)-one]
–	100 to 300	–	CC1(C)CCc2nc3cc(-c4nnc(-c5ccccn5)o4)ccc3c(=O)n2C1 [Example 6.35, 8,8-dimethyl-3-(5-(pyridin-2-yl)-1,3,4-oxadiazol-2-yl)-8,9-dihydro-6H-pyrido[2,1-b]quinazolin-11(7H)-one]
–	10 to 30	–	CC1(C)CCc2nc3cc(C#Cc4cccc(C#N)n4)ccc3c(=O)n2C1 [Example 2.24b, 6-((8,8-dimethyl-11-oxo-7,8,9,11-tetrahydro-6H-pyrido[2,1-b]quinazolin-3-yl)ethynyl)picolinonitrile]
–	300 to 1000	–	CC1(C)Cc2nc3cc(C(=O)Nc4ccccn4)ccc3c(=O)n2C1 [Example 4.17, 2,2-dimethyl-9-oxo-N-(pyridin-2-yl)-1,2,3,9-tetrahydropyrrolo[2,1-b]quinazoline-6-carboxamide]
–	–	+ (+ is between 1.5 and 1.9)	CC1Cc2nc3cc(C#Cc4ccccn4)ccc3c(=O)n2CCC1(F)F (single isomer, unassigned) [Example 3.30d]
